Test systems include 786-0 renal; A498 renal; CAKI-1 renal; COLO 205 colon; EKVX NSCLC; HS 578T breast; LOX IMVI melanoma; MALME-3M melanoma; MCF7 breast; MDA-MB-435; MDA-N; NCI-H23 lung; NCI-H460 lung; NCI/ADR-RES ovarian; RXF 393 renal; SF-295 CNS; SK-MEL-5 melanoma; SK-OV-3 ovarian.
Holding throughout (assay): NCI-60 cell line screen, 48 h

SMILES strings stand for the structures.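 Tested at 5 concentrations; 48 h exposure; 96-well plates; endpoints linearly interpolated, else capped at highest concentration. TGI: total growth inhibition.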 A value given as a limit tells only on which side of the number the result lay.

Turning to `CCOC(=O)[C@@H]1CCN2CN(c3ccc(OC)cc3)N=C(c3ccccc3)[C@@]12c1ccccc1`, the TGI is 51.7 µM in the assay on 786-0 renal; 53.5 µM in the assay with A498 renal; greater than 100 µM in the assay on CAKI-1 renal; 61.3 µM in the assay with COLO 205 colon; greater than 100 µM with EKVX NSCLC; 70.3 µM with HS 578T breast. Further, the TGI with LOX IMVI melanoma is 29.6 µM; with MALME-3M melanoma, 37.9 µM; in the assay with MCF7 breast, 50 µM; with MDA-MB-435 it was greater than 100 µM; in the assay on MDA-N, greater than 100 µM; in the assay on NCI-H23 lung it was 73.5 µM. In addition, the TGI was greater than 100 µM with NCI-H460 lung; 67.9 µM in the assay on NCI/ADR-RES ovarian; 35.7 µM in the assay on RXF 393 renal; 77.1 µM in the assay on SF-295 CNS; 30.5 µM in the assay with SK-MEL-5 melanoma; greater than 100 µM in the assay with SK-OV-3 ovarian.
On to `CN(C)CCCNc1c(C#N)[n+]([O-])c2cc(Cl)ccc2[n+]1[O-]`, for which the TGI in the assay on 786-0 renal is greater than 100 µM; in the assay on A498 renal, greater than 52.4 µM; in the assay on CAKI-1 renal, greater than 51.8 µM; with COLO 205 colon it was 14.6 µM; in the assay on EKVX NSCLC, 22.5 µM; in the assay with HS 578T breast, greater than 100 µM. For the same compound, the TGI in the assay with LOX IMVI melanoma was 56.9 µM; with MALME-3M melanoma it was 17.4 µM; with MCF7 breast, greater than 52.7 µM; in the assay with MDA-MB-435, greater than 67.2 µM; with MDA-N, greater than 59.9 µM; with NCI-H23 lung, 23.5 µM. Also, the TGI in the assay with NCI-H460 lung was 13.2 µM; in the assay on NCI/ADR-RES ovarian it was greater than 57.3 µM; in the assay with RXF 393 renal, greater than 100 µM; with SF-295 CNS, greater than 49.1 µM; in the assay on SK-MEL-5 melanoma it was 10.9 µM; with SK-OV-3 ovarian, greater than 67.1 µM.
For the compound `COc1ccc(NC(=O)/C(=N/NC(N)=S)C2C(=O)NC(=S)NC2=O)c(OC)c1`, the TGI in the assay with 786-0 renal, in the assay with A498 renal, in the assay with CAKI-1 renal, in the assay on COLO 205 colon, with EKVX NSCLC and in the assay with HS 578T breast was greater than 100 µM throughout. Further, the TGI with LOX IMVI melanoma, with MALME-3M melanoma, with MCF7 breast, in the assay with MDA-MB-435, in the assay on MDA-N and with NCI-H23 lung was greater than 100 µM each time. Also, the TGI in the assay with NCI-H460 lung, with NCI/ADR-RES ovarian, in the assay on SF-295 CNS, in the assay with SK-MEL-5 melanoma and with SK-OV-3 ovarian was greater than 100 µM in each case.
As for `COc1cccc(-c2nc3ccccc3c(=O)[nH]2)c1OC`, the TGI with 786-0 renal, in the assay with A498 renal, with CAKI-1 renal, with COLO 205 colon, in the assay on EKVX NSCLC and in the assay with HS 578T breast was greater than 100 µM throughout. The TGI with MALME-3M melanoma, in the assay with MCF7 breast, in the assay with MDA-MB-435, in the assay with MDA-N, in the assay on NCI-H23 lung and in the assay on NCI-H460 lung was greater than 100 µM in each case. The TGI with NCI/ADR-RES ovarian, with RXF 393 renal, with SF-295 CNS, in the assay with SK-MEL-5 melanoma and with SK-OV-3 ovarian was greater than 100 µM throughout.
As to `Cc1ccc(C2SC(N)=Nc3c2c(C)nn3C(=O)c2ccccc2O)cc1` (configuration not stated), the TGI with 786-0 renal is greater than 10 µM; in the assay with A498 renal, greater than 10 µM; with CAKI-1 renal, greater than 10 µM; in the assay with COLO 205 colon, greater than 10 µM; with EKVX NSCLC it was greater than 10 µM; in the assay on HS 578T breast, 5.27 µM. Further, the TGI in the assay with LOX IMVI melanoma, in the assay on MALME-3M melanoma, in the assay on MCF7 breast, with MDA-MB-435, in the assay with MDA-N and with NCI-H23 lung was greater than 10 µM throughout. For the same compound, the TGI in the assay with NCI-H460 lung, with NCI/ADR-RES ovarian, in the assay with RXF 393 renal, with SK-MEL-5 melanoma and in the assay on SK-OV-3 ovarian was greater than 10 µM each time.
`CC(C)(C)OC(=O)NC(CCC(=O)OCc1ccccc1)C(=O)NCCCO` (configuration not stated): the TGI in the assay on 786-0 renal, in the assay with A498 renal, in the assay with CAKI-1 renal, with EKVX NSCLC, in the assay on HS 578T breast and with LOX IMVI melanoma was greater than 100 µM each time. Further, the TGI with MALME-3M melanoma, in the assay on MCF7 breast, in the assay on MDA-MB-435, in the assay with MDA-N, with NCI-H23 lung and in the assay on NCI-H460 lung was greater than 100 µM in each case. Besides, the TGI in the assay with NCI/ADR-RES ovarian, in the assay with RXF 393 renal, in the assay on SK-MEL-5 melanoma and in the assay on SK-OV-3 ovarian was greater than 100 µM throughout.
Consider `COC(=O)[C@@H](NC(=O)N(CCC#N)CCCN(C(=O)N[C@H](Cc1ccccc1)C(=O)OC)c1ccccc1)C(C)C`, for which the TGI in the assay with 786-0 renal, with A498 renal, with CAKI-1 renal, with COLO 205 colon, in the assay with EKVX NSCLC and in the assay with HS 578T breast was greater than 100 µM throughout. Moreover, the TGI with LOX IMVI melanoma is greater than 100 µM; with MALME-3M melanoma it was 92.7 µM; in the assay with MCF7 breast, greater than 100 µM; with MDA-MB-435, greater than 100 µM; with MDA-N it was greater than 100 µM; in the assay on NCI-H23 lung, greater than 100 µM. Besides, the TGI in the assay on NCI/ADR-RES ovarian, with RXF 393 renal, in the assay with SF-295 CNS, with SK-MEL-5 melanoma and with SK-OV-3 ovarian was greater than 100 µM throughout.
As to `O=C1CCCC1C(O)(C(F)(F)F)C(F)(F)F` (configuration not stated), the TGI in the assay on 786-0 renal, in the assay with A498 renal, in the assay on CAKI-1 renal, in the assay with COLO 205 colon, in the assay with EKVX NSCLC and in the assay on HS 578T breast was greater than 100 µM each time. Further, the TGI with LOX IMVI melanoma, in the assay on MALME-3M melanoma, with MCF7 breast, with MDA-MB-435, in the assay with MDA-N and in the assay with NCI-H23 lung was greater than 100 µM each time. The TGI in the assay on NCI-H460 lung, in the assay with NCI/ADR-RES ovarian, in the assay with RXF 393 renal, in the assay with SF-295 CNS and with SK-MEL-5 melanoma was greater than 100 µM each time.

The record behind these values is PubChem BioAssay (NCI).
